Source: US8058243B2, “Method for treating a brain cancer with ifenprodil” (HSC Research and Development Limited Partnership, priority 2006, dated 2011)
Where a name gives a salt, the structure may show the parent alone. Read-outs that look alike come from different tables or passages of the source.

Test system: murine neural precursor cells (neurosphere cultures)
Experiment: HTS of LOPAC library against secondary neurosphere cultures, MTT proliferation assay at 3 μM, day 7 (z score, P value)
Type: cell-based, mouse
[1] = yes/no: significantly inhibited neurosphere proliferation in primary screen
[2] = LOPAC screen, neurosphere MTT proliferation, 3 μM, day 7
[3] = yes/no: significantly inhibited neurosphere proliferation (P<0.01) in primary screen
[4] = LOPAC primary screen, neurosphere MTT proliferation, 3 μM, day 7
[5] = LOPAC library screen, 3 μM, MTT, secondary neurosphere cultures, day 7
[6] = yes/no: significantly inhibited neurosphere proliferation (P<0.01) in the primary screen
[7] = LOPAC library screen, 3 μM, MTT, neurosphere cultures
[8] = LOPAC library screen at 3 μM, MTT, secondary neurosphere cultures, screened in singlets
[9] = yes/no: significantly inhibited neurosphere proliferation in the primary screen
[10] = yes = significantly inhibited neurosphere proliferation (P<0.01) in the primary screen
[11] = LOPAC library screen at 3 μM, secondary neurosphere cultures, MTT
[12] = primary LOPAC screen, 3 μM, MTT, neurosphere proliferation

## SKF 83565 hydrobromide
[1]
  Activity: no

## CC1(C(=O)O)C2CCC(O2)C1(C)C(=O)O (stereo not drawn) [Cantharidic Acid]
  Z Score: −0.5529
[2]
  Z score: −0.553
[3]
  Activity: no

## Cc1ccc(OCC(O)C(C)NC(C)C)c2c1CCC2.Cl (stereo not drawn) [ICI 118,551 hydrochloride]
  Z Score: 1.101
[4]
  Z score: 1.101
[3]
  Activity: no

## Br.CN1CCc2cc(O)c(O)cc2C(c2ccccc2)C1 (stereo not drawn) [SKF 75670 hydrobromide]
  Z Score: −0.1421
[4]
  Z score: −0.142
[1]
  Activity: no

## OCCN1CCN(CCCN2c3ccccc3Sc3ccc(Cl)cc32)CC1 [Perphenazine (26), Perphenazine, reference compound]
[5]
  Z Score: −11.06
[4]
  Z score: −11.065
[6]
  Activity: yes

## CN(C)c1ccc(O)c2c1C[C@H]1C[C@H]3[C@H](N(C)C)C(O)=C(C(N)=O)C(=O)[C@@]3(O)C(O)=C1C2=O [Minocycline hydrochloride]
[7]
  Z Score: 0.4419
[4]
  Z score: 0.442

## Cl.N=C(N)NC(=N)Nc1cccc(Cl)c1 [1-(m-Chlorophenyl)-biguanide hydrochloride]
  Z Score: 1.795
[4]
  Z score: 1.795
[6]
  Activity: no

## CCN1CCC[C@H]1CNC(=O)c1c(O)c(Cl)cc(Cl)c1OC.O=C(O)C(O)C(O)C(=O)O (racemic) [S(+)-Raclopride L-tartrate]
[8]
  Z Score: 1.901
[4]
  Z score: 1.901
[6]
  Activity: no

## N[C@@H](COP(=O)(O)O)C(=O)O [O-Phospho-L-serine]
[7]
  Z Score: 0.5472
[4]
  Z score: 0.547
[1]
  Activity: no

## COC(=O)[C@@H]1[C@H]2C[C@H]3c4[nH]c5ccccc5c4CCN3C[C@@H]2CC[C@@H]1O [Yohimbine hydrochloride]
168 h, 3 µM
  Z Score: −1.656
  Z score: −1.656
[9]
  Activity: no

## C[C@H](CS)C(=O)N1CCC[C@H]1C(=O)O [Captopril]
[5]
  Z Score: −1.285
[2]
  Z score: −1.285
[3]
  Activity: no

## CCCCCCCCCCCCCCCCCC(=O)OC(CC(=O)O)C[N+](C)(C)C.[Cl-] (racemic) [DL-Stearoylcarnitine chloride]
  Z Score: 0.6378
[4]
  Z score: 0.638
[1]
  Activity: no

## Clc1ccc(C(c2ccccc2Cl)C(Cl)Cl)cc1 (stereo not drawn) [1-(2-Chlorophenyl)-1-(4-chlorophenyl)-2,2-dichloroethane]
[5]
  Z Score: −2.508
[4]
  Z score: −2.508
[10]
  Activity: yes

## CCCN1CCC[C@@H](c2cccc(C#N)c2)C1.Cl [S(−)-DS 121 hydrochloride]
  Z Score: −0.0998
[2]
  Z score: −0.100
[3]
  Activity: no

## C[C@]12C=CC(=O)C=C1CC[C@H]1[C@@H]3C[C@@H](O)[C@](O)(C(=O)CO)[C@@]3(C)C[C@H](O)[C@@]12F [Triamcinolone]
  Activity: no
[11]
  Z Score: −0.184
[4]
  Z score: −0.184

## Cl.c1ccc2sc(C3(N4CCCCC4)CCCCC3)cc2c1 [BTCP hydrochloride]
  Z Score: 0.8361
[4]
  Z score: 0.836
[10]
  Activity: no

## CN1CCc2cc(O)cc3c2[C@H]1Cc1ccc(O)c(O)c1-3 [R(−)-2,10,11-Trihydroxyaporphine]
[4]
  Z score: −3.309
[6]
  Activity: yes

## COc1cc(NS(C)(=O)=O)ccc1Nc1c2ccccc2nc2ccccc12 [Amsacrine hydrochloride]
[5]
  Z Score: −11.27
[4]
  Z score: −11.274
[10]
  Activity: yes

## Oc1c2ccccc2c2c3c(cccc13)N=N2 [SP600125]
[5]
  Z Score: −1.986
[2]
  Z score: −1.986

## S=C=Nc1ccc2oc(C3=NCCN3)cc2c1 [BU99006]
  Z Score: 1.182
[4]
  Z score: 1.182
[3]
  Activity: no

## R-(−)-Fluoxetine hydrochloride
  Activity: no
[11]
  Z Score: −0.1281

## CCCCCCCC/C=C\CCCCCCCC(=O)NCCc1ccc(O)c(O)c1 [N-Oleoyldopamine]
168 h, 3 µM
  Z Score: 0.4633
  Z score: 0.463
[1]
  Activity: no

## O=C1CCC(c2ccc(-n3ccnc3)cc2)=NN1 [Imazodan]
168 h, 3 µM
  Z Score: 0.4616
  Z score: 0.462
[3]
  Activity: no

## C=C[C@H]1C[N@@]2CC[C@H]1C[C@@H]2[C@@H](O)c1ccnc2ccc(OC)cc12 [Quinidine sulfate]
[5]
  Z Score: −1.93
[4]
  Z score: −1.930
[1]
  Activity: no

## O=C1CCC(N2C(=O)c3ccccc3C2=O)C(=O)N1 (racemic) [(±)-Thalidomide]
[12]
  Z score: 0.521
[9]
  Activity: no

## CC1=C(C(=O)O)N2C(=O)[C@@H](NC(=O)[C@H](N)c3ccccc3)[C@H]2SC1 [Cephalexin hydrate]
[5]
  Z Score: −3.966
[4]
  Z score: −3.966
[6]
  Activity: yes

## N#C/C(=C\c1ccc(O)c(O)c1)C(=O)c1ccc(O)c(O)c1 [Tyrphostin AG 538]
  Z Score: −0.3955
[12]
  Z score: −0.395
[9]
  Activity: no

## C/C=C1\C(=O)C[C@H]2[C@@H]3CCC4=CC(=O)CC[C@]4(C)[C@H]3CC[C@]12C [(Z)-Gugglesterone]
  Z Score: 3.205
[2]
  Z score: 3.205
[3]
  Activity: no

## CN1CCc2cc3c(cc2[C@H]1[C@@H]1OC(=O)c2c1ccc1c2OCO1)OCO3 [(+)-Bicuculline]
  Z Score: −0.1989
[4]
  Z score: −0.199
[6]
  Activity: no

## C[n+]1cc2c3c(ccc2c2ccc4cc5c(cc4c21)OCO5)OCO3 [Sanguinarine chloride]
  Z Score: −10.01
[4]
  Z score: −10.008
[6]
  Activity: yes

## NC(N)=Nc1nc(CSCCC(N)=NS(N)(=O)=O)cs1 [Famotidine]
  Activity: no
[7]
  Z Score: 0.05489
[4]
  Z score: 0.055

## Br.CCSC(=N)N [S-Ethylisothiourea hydrobromide]
168 h, 3 µM
  Z Score: −1.599
  Z score: −1.599
[3]
  Activity: no

## CN1C[C@H](C(=O)N[C@]2(C)O[C@@]3(O)[C@@H]4CCCN4C(=O)[C@H](Cc4ccccc4)N3C2=O)C[C@@H]2c3cccc4[nH]cc(c34)C[C@H]21 [Dihydroergotamine methanesulfonate]
[11]
  Z Score: −0.7795
[2]
  Z score: −0.779
[3]
  Activity: no

## Cl.N[C@@H](Cc1c[nH]cn1)C(=O)O [L-Histidine hydrochloride]
  Z Score: −1.421
[4]
  Z score: −1.421
[3]
  Activity: no

## CN(C)CCCN1c2ccccc2CCc2ccc(Cl)cc21 [Clomipramine hydrochloride]
  Activity: no
[11]
  Z Score: −0.8439
[4]
  Z score: −0.844

## N[C@@H](Cn1oc(=O)[nH]c1=O)C(=O)O [(+)-Quisqualic acid]
  Z Score: 0.4361
[4]
  Z score: 0.436
[1]
  Activity: no

## N[C@@H](Cc1ccc(F)cc1)C(=O)O [p-Fluoro-L-phenylalanine]
168 h, 3 µM
  Z Score: −0.7023
  Z score: −0.702
[3]
  Activity: no

## trans-(±)-ACPD
[12]
  Z score: 0.315
[9]
  Activity: no

## CC(C)NCC(O)COc1cccc2[nH]ccc12 (stereo not drawn) [S(−)-Pindolol]
[4]
  Z score: −1.122
[2]
  Z score: −0.965
[3]
  Activity: no
[1]
  Activity: no

## O=C(O)CN(CCOCCOCCN(CC(=O)O)CC(=O)O)CC(=O)O
  Activity: no
  Z Score: 1.507
  Z score: 1.507

## Oc1ncnc2[nH]ncc12 [Allopurinol]
[7]
  Z Score: 0.1473
[12]
  Z score: 0.147
[9]
  Activity: no

## CN1CCN(C2=Nc3ccccc3Oc3ccc(Cl)cc32)CC1 [Loxapine succinate]
  Z Score: −0.7477
[4]
  Z score: −0.748
[3]
  Activity: no

## CC(C)NCC(O)COc1cccc2[nH]ccc12 (stereo not drawn) [Pindolol]
[7]
  Z Score: −0.07895
[4]
  Z score: −0.079
[1]
  Activity: no

## (−)-Cotinine
[11]
  Z Score: −0.5099
[2]
  Z score: −0.510
[3]
  Activity: no

## Cn1c(=O)c2c(nc(C=Cc3cccc(Cl)c3)n2C)n(C)c1=O [8-(3-Chlorostyryl)caffeine]
168 h, 3 µM
  Z Score: −1.214
  Z score: −1.214
[3]
  Activity: no

## Cl.Cn1ccc2cc(NC(=O)Nc3cccnc3)ccc21 [SB 200646 hydrochloride]
  Z Score: 2.437
[12]
  Z score: 2.437
[9]
  Activity: no

## CC(C)NCC(O)c1ccc(O)c(O)c1.Cl (single isomer, unassigned; (-)) [(−)-Isoproterenol hydrochloride]
[7]
  Z Score: 0.2367
[4]
  Z score: 0.237
[3]
  Activity: no

## CC(C)CC(NC(=O)C1OC1C(=O)O)C(=O)NCCCCNC(=N)N (stereo not drawn) [E-64]
  Z Score: −1.709
[2]
  Z score: −1.709
[3]
  Activity: no

## CC(Cc1ccc(O)c(O)c1)C(C)Cc1ccc(O)c(O)c1 (stereo not drawn)
[8]
  Z Score: 2.63
[4]
  Z score: 2.630
[10]
  Activity: no

## C[C@]12CCC(=O)C=C1CC[C@@H]1[C@@H]2C(=O)C[C@@]2(C)[C@H]1CC[C@]2(O)C(=O)CO [Cortisone]
[11]
  Z Score: −0.5807
[12]
  Z score: −0.581
[9]
  Activity: no

## Cl.O=c1cc(N2CCOCC2)oc2c(-c3ccccc3)cccc12 [LY-294,002 hydrochloride]
  Z Score: −1.217
[4]
  Z score: −1.217
[3]
  Activity: no

## R-(−)-Desmethyldeprenyl hydrochloride
  Z Score: −0.5056
[2]
  Z score: −0.506
[3]
  Activity: no

## Cc1ccccc1/C=C/C1=NCCN1 [Metrazoline oxalate]
168 h, 3 µM
  Z Score: 0.1073
  Z score: 0.107
[10]
  Activity: no

## NC/C=C\C(=O)O [cis-4-Aminocrotonic acid]
[11]
  Z Score: −1.088
[12]
  Z score: −1.088
[9]
  Activity: no

## O=C(O)C1CCCNC1 (racemic) [(±)-Nipecotic acid]
  Z score: −0.722
